Data from patent US12240816B2, “Deuterated compounds and uses thereof” (Aldeyra Therapeutics, Inc., priority 2015, dated 2025).
“And” between values parts separate entries of the source, which are not always exact repeats. Identical values can stand only once. “Also recorded” adds a separate entry of the source. Like-named read-outs stand apart in the source and are kept apart here. Marks after values point to notes of the source that are not given here.

Assays:
acetylcholinesterase (h) = acetylcholinesterase (h) (Homo sapiens, UniProt P22303); test: biochemical
Chain of acetylcholinesterase (h) (P22303 32-614): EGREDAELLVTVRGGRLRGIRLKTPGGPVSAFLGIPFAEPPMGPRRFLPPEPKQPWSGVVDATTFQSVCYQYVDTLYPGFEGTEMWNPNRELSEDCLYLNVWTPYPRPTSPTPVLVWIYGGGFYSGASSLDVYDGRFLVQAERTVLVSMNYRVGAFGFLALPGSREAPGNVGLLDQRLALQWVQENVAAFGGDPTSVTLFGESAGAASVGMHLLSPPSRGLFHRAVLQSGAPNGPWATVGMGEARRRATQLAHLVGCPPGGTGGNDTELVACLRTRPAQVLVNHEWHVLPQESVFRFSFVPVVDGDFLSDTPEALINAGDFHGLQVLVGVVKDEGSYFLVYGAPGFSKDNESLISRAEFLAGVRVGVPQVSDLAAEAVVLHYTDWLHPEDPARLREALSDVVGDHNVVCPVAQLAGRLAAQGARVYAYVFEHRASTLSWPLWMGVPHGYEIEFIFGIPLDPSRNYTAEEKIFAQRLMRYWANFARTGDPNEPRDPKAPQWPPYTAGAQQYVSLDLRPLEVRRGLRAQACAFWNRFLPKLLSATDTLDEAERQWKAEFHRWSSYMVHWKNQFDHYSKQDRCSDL

[1] = molecular target: enzyme and uptake assay panel targets (Table 36) (Homo sapiens, UniProt P14780); test: biochemical; format: biochemical; details: MMP-9 (h); 1.0E−05M; flag INTER: Test compound interferes with the assay detection method
Chain of enzyme and uptake assay panel targets (Table 36) (Homo sapiens, UniProt P14780) (P14780 94-707): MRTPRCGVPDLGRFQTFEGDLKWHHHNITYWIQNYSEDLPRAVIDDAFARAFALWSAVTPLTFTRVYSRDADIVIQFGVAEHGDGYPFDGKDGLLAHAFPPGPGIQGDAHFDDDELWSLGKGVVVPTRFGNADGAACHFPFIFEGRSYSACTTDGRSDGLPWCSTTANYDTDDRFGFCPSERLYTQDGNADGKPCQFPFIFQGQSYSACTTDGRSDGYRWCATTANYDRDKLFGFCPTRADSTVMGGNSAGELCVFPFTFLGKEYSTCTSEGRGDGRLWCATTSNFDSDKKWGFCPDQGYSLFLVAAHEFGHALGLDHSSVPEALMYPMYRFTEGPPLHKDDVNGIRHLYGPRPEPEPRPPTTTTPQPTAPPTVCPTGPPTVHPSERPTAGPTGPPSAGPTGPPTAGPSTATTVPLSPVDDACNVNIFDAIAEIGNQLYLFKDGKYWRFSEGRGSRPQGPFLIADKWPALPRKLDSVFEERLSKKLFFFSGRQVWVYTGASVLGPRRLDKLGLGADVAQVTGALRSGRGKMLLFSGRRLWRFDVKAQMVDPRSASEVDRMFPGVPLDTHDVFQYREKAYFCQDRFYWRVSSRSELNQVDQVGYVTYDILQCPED

[2] = molecular target: enzyme and uptake assay panel targets (Table 36) (Homo sapiens, UniProt P42574); test: biochemical; format: biochemical; details: caspase-3 (h); 1.0E−05M
Chain of enzyme and uptake assay panel targets (Table 36) (Homo sapiens, UniProt P42574) (P42574 29-277): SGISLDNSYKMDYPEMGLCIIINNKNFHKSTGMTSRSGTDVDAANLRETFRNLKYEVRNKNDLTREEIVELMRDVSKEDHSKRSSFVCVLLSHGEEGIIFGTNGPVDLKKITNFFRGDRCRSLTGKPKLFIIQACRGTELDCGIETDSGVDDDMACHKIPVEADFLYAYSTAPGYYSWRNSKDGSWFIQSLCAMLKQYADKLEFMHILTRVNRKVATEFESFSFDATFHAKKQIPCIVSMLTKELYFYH

[3] = molecular target: enzyme and uptake assay panel targets (Table 36) (Homo sapiens, UniProt P27338); test: biochemical; format: biochemical; details: MAO-B (h) recombinant enzyme; 1.0E−05M
Chain of enzyme and uptake assay panel targets (Table 36) (Homo sapiens, UniProt P27338) (P27338 whole entry): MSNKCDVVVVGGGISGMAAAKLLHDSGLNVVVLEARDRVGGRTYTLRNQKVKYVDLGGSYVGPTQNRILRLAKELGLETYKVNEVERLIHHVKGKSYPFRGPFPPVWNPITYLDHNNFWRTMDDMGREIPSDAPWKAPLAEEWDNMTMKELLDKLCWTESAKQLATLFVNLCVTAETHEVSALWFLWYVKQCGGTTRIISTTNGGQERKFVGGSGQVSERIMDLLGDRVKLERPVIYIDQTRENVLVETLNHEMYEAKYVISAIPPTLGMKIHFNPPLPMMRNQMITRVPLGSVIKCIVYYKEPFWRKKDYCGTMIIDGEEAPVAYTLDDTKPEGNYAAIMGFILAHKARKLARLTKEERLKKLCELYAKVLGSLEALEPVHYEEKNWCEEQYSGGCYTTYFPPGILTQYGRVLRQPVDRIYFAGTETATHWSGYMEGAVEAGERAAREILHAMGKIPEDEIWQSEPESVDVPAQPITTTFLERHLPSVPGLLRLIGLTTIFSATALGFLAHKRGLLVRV

[4] = molecular target: enzyme and uptake assay panel targets (Table 36) (Homo sapiens, UniProt P09917); test: biochemical; format: biochemical; details: 5-lipoxygenase (h); 1.0E−05M
Chain of enzyme and uptake assay panel targets (Table 36) (Homo sapiens, UniProt P09917) (P09917 whole entry): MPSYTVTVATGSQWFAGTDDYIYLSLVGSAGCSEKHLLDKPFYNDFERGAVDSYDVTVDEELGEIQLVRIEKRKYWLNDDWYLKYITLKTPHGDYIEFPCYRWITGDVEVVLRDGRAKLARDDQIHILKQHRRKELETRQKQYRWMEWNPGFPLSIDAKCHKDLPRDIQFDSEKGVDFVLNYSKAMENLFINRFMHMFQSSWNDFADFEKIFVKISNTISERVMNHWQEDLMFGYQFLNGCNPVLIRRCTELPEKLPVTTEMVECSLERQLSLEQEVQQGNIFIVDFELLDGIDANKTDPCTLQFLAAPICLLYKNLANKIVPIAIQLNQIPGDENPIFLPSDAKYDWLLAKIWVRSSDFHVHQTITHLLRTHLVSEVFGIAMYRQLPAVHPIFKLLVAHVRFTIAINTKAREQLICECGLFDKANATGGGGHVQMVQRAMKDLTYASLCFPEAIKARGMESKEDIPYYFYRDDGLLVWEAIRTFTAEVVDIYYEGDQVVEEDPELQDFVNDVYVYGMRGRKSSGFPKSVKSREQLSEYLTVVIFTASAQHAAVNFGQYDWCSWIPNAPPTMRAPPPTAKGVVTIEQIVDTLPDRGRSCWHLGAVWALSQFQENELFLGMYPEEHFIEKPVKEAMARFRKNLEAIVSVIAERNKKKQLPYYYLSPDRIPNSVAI

[5] = molecular target: T1, enzyme and uptake assay panel targets (Table 36) (Bos taurus, UniProt P80457); test: biochemical; format: biochemical; details: xanthine oxldase/superoxide 02 ^−scavenging, 1.0E−05M
T1 construct: other: xanthine oxidase/superoxide 02^−scavenging; nH; other: xanthine oxldase/superoxide 02 ^−scavenging; 1.0E−05M; ot; purified xanthine oxidase from bovine milk
T1 sequence (P80457 whole entry): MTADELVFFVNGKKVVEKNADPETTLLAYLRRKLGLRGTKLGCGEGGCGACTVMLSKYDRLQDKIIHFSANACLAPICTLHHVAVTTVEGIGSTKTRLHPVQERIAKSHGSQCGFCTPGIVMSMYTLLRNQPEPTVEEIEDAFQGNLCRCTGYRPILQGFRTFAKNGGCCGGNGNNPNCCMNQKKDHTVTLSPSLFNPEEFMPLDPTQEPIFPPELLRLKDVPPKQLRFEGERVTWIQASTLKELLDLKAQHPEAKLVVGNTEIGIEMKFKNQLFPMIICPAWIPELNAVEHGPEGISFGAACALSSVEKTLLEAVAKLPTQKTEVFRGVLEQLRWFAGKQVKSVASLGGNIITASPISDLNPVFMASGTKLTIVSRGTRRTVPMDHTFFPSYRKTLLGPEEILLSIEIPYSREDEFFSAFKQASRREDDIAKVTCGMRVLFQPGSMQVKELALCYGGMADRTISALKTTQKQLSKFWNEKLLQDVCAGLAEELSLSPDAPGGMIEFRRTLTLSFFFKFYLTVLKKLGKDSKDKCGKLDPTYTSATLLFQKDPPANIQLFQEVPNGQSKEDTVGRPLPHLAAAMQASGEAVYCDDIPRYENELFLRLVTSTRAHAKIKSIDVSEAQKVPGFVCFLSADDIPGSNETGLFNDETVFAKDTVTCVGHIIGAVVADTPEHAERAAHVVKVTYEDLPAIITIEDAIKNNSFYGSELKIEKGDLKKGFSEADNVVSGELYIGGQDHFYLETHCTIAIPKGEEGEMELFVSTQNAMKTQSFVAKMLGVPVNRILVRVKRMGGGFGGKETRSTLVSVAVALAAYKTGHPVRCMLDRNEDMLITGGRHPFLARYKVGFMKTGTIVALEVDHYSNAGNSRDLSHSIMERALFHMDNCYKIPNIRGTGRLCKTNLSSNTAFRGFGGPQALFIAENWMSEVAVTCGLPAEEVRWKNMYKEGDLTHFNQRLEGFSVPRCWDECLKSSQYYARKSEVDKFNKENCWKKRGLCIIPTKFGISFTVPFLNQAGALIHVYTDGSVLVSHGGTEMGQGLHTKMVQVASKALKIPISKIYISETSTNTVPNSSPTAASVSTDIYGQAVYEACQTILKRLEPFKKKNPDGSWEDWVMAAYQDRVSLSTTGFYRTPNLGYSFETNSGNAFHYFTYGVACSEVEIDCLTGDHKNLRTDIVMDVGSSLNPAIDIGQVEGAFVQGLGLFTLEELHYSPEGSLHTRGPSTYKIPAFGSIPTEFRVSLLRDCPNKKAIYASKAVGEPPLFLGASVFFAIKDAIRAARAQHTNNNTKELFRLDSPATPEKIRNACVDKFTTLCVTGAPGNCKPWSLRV

[6] = molecular target: enzyme and uptake assay panel targets (Table 36) (Homo sapiens, UniProt P43403); test: biochemical; format: biochemical; details: ZAP70 kinase (h); 1.0E−05M
Chain of enzyme and uptake assay panel targets (Table 36) (Homo sapiens, UniProt P43403) (P43403 whole entry): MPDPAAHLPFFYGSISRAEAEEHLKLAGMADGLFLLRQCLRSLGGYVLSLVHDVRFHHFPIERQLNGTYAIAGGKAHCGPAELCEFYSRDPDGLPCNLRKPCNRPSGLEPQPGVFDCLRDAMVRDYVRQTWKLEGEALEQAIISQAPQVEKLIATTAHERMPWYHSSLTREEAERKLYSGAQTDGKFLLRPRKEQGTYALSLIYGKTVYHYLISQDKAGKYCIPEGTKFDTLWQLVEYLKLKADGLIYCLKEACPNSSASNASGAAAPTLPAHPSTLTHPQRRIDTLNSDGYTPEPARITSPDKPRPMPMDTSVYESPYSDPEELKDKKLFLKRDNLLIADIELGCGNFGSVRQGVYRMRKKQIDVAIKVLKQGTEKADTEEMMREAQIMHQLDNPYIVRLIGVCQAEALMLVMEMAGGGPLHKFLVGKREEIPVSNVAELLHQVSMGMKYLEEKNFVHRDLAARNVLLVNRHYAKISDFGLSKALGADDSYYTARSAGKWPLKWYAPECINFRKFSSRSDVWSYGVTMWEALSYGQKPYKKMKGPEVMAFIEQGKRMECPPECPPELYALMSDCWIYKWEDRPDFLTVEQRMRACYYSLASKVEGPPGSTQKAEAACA

[7] = molecular target: enzyme and uptake assay panel targets (Table 36) (Homo sapiens, UniProt P28482); test: biochemical; format: biochemical; details: ERK2 (h) (P42^mapk); 1.0E−05M
Chain of enzyme and uptake assay panel targets (Table 36) (Homo sapiens, UniProt P28482) (P28482 whole entry): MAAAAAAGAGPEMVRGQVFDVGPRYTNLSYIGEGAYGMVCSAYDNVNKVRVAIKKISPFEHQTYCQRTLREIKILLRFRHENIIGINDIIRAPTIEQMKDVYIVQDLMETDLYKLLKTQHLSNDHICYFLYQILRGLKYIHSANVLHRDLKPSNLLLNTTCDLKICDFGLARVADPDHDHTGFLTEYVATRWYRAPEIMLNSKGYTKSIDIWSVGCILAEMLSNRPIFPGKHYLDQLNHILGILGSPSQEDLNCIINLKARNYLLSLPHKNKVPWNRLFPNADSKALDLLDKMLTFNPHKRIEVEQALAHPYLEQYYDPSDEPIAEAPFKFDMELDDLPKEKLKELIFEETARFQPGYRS

rat hippocampal cultures = test: cells; format: cell-based
[8] = read-out: % inhibition of Control Values 1st
[9] = read-out: % inhibition of Control Values 2nd
[10] = read-out: % inhibition of Control Values Mean
[11] = CFDA, Captisol formulation, 10 μM hydrogen peroxide, 5 h
[12] = CFDA, DMSO formulation, 10 μM hydrogen peroxide, 5 h
[13] = NS2 (CoreRx micro-milled, Captisol) 0.1 μM + 10 μM hydrogen peroxide, 5 h
[14] = NS2 (CoreRx micro-milled, Captisol) 1 μM + 10 μM hydrogen peroxide, 5 h
[15] = NS2 (CoreRx micro-milled, Captisol) 10 μM + 10 μM hydrogen peroxide, 5 h
[16] = NS2 (CoreRx micro-milled, Captisol) 100 μM + 10 μM hydrogen peroxide, 5 h
[17] = NS2 (CoreRx micro-milled, Captisol) 1 mM + 10 μM hydrogen peroxide, 5 h
[18] = NS2 (CoreRx micro-milled, DMSO) 0.1 μM + 10 μM hydrogen peroxide, 5 h
[19] = NS2 (CoreRx micro-milled, DMSO) 1 μM + 10 μM hydrogen peroxide, 5 h
[20] = NS2 (CoreRx micro-milled, DMSO) 10 μM + 10 μM hydrogen peroxide, 5 h
[21] = NS2 (CoreRx micro-milled, DMSO) 100 μM + 10 μM hydrogen peroxide, 5 h
[22] = NS2 (CoreRx micro-milled, DMSO) 1 mM + 10 μM hydrogen peroxide, 5 h
[23] = NS2 (J-Star non-milled, Captisol) 0.1 μM + 10 μM hydrogen peroxide, 5 h
[24] = NS2 (J-Star non-milled, Captisol) 1 μM + 10 μM hydrogen peroxide, 5 h
[25] = NS2 (J-Star non-milled, Captisol) 10 μM + 10 μM hydrogen peroxide, 5 h
[26] = NS2 (J-Star non-milled, Captisol) 100 μM + 10 μM hydrogen peroxide, 5 h
[27] = NS2 (J-Star non-milled, Captisol) 1 mM + 10 μM hydrogen peroxide, 5 h
[28] = NS2 (J-Star non-milled, DMSO) 0.1 μM + 10 μM hydrogen peroxide, 5 h
[29] = NS2 (J-Star non-milled, DMSO) 1 μM + 10 μM hydrogen peroxide, 5 h
[30] = NS2 (J-Star non-milled, DMSO) 10 μM + 10 μM hydrogen peroxide, 5 h
[31] = NS2 (J-Star non-milled, DMSO) 100 μM + 10 μM hydrogen peroxide, 5 h
[32] = NS2 (J-Star non-milled, DMSO) 1 mM + 10 μM hydrogen peroxide, 5 h

[2H]C([2H])([2H])C(O)(c1nc2ccc(Cl)cc2cc1N)C([2H])([2H])[2H] [Compound I-1]
inhibition at 10 µM (acetylcholinesterase (h); [8]): 45.8% | inhibition at 10 µM (acetylcholinesterase (h); [9]): 60.1% | inhibition at 10 µM (acetylcholinesterase (h); [10]): 52.9% | % inhibition of Control Values 1st [1]: 4.5% | % inhibition of Control Values 2nd [1]: 4.4% | % inhibition of Control Values Mean [1]: 4.4% | % inhibition of Control Values 1st [2]: −2.0% | % inhibition of Control Values 2nd [2]: 2.5% | % inhibition of Control Values Mean [2]: 0.2% | % inhibition of Control Values 1st [3]: −3.1% | % inhibition of Control Values 2nd [3]: −3.7% | % inhibition of Control Values Mean [3]: −3.4% | % inhibition of Control Values 1st [4]: 23.5% | % inhibition of Control Values 2nd [4]: 24.8% | % inhibition of Control Values Mean [4]: 24.2% | inhibition at 10 µM [5, 8]: -3.1% | inhibition at 10 µM [5, 9]: 15.6% | inhibition at 10 µM [5, 10]: 6.3% | % inhibition of Control Values 1st [6]: 0.4% | % inhibition of Control Values 2nd [6]: 1.5% | % inhibition of Control Values Mean [6]: 1.0% | % inhibition of Control Values 1st [7]: −6.3% | % inhibition of Control Values 2nd [7]: −1.3% | % inhibition of Control Values Mean [7]: −3.8%

CC(C)(O)c1nc2ccc(Cl)cc2cc1N [NS2, 2-(3-amino-6-chloroquinolin-2-yl)propan-2-ol]
Full Efficacy Concentration (rat hippocampal cultures; [11]): 100 µM | No effect Concentration (rat hippocampal cultures; [11]): 1 µM | EC50 (rat hippocampal cultures; CFDA, Captisol formulation, 10 μM hydrogen peroxide, 5 h, listed as CoreRx NS2 (milled), read-out: EC50 ± SE): 7 ± 4 µM | EC50 (rat hippocampal cultures; CFDA, Captisol formulation, 10 μM hydrogen peroxide, 5 h, listed as NS2 (J-Star), read-out: EC50 ± SE): 9.1 µM | Full Efficacy Concentration (rat hippocampal cultures; [12]): 100 µM | No effect Concentration (rat hippocampal cultures; [12]): 1 µM | EC50 (rat hippocampal cultures; CFDA, DMSO formulation, 10 μM hydrogen peroxide, 5 h, values with * are estimates, listed as NS2 (CoreRx), read-out: EC50 ± SE): 9.8 µM | EC50 (rat hippocampal cultures; CFDA, DMSO formulation, 10 μM hydrogen peroxide, 5 h, values with * are estimates, listed as NS2 (J-Star), read-out: EC50 ± SE): 2.6 µM | Full protection concentration (rat hippocampal cultures; CFDA, both NS2 formulations and both batches): 100 µM | no effect concentration (rat hippocampal cultures; CFDA, both formulations and batches): 1 µM | % of Control (CFDA) (rat hippocampal cultures; [13]): 58 ± 4% | CFDA signal, Mean (rat hippocampal cultures; [13]): 26931 | % of Control (CFDA) (rat hippocampal cultures; [14]): 64 ± 6% | CFDA signal, Mean (rat hippocampal cultures; [14]): 29693 | % of Control (CFDA) (rat hippocampal cultures; [15]): 80 ± 8% | CFDA signal, Mean (rat hippocampal cultures; [15]): 37577* | % of Control (CFDA) (rat hippocampal cultures; [16]): 100 ± 6% | CFDA signal, Mean (rat hippocampal cultures; [16]): 46508* | % of Control (CFDA) (rat hippocampal cultures; [17]): 92 ± 07% | CFDA signal, Mean (rat hippocampal cultures; [17]): 42889* | % of Control (CFDA) (rat hippocampal cultures; [18]): 61 ± 2% | CFDA signal, Mean (rat hippocampal cultures; [18]): 26314 | % of Control (CFDA) (rat hippocampal cultures; [19]): 62 ± 6% | CFDA signal, Mean (rat hippocampal cultures; [19]): 26633 | % of Control (CFDA) (rat hippocampal cultures; [20]): 79 ± 3% | CFDA signal, Mean (rat hippocampal cultures; [20]): 34180* | CFDA signal, replicate wells (rat hippocampal cultures; [20]): 32661 (3×) and 34496 and 38422 | % of Control (CFDA) (rat hippocampal cultures; [21]): 101 ± 6% | CFDA signal, Mean (rat hippocampal cultures; [21]): 43328* | % of Control (CFDA) (rat hippocampal cultures; [22]): 90 ± 3% | CFDA signal, Mean (rat hippocampal cultures; [22]): 38622* | % of Control (CFDA) (rat hippocampal cultures; [23]): 60 ± 4% | CFDA signal, Mean (rat hippocampal cultures; [23]): 24142 | % of Control (CFDA) (rat hippocampal cultures; [24]): 61 ± 3% | CFDA signal, Mean (rat hippocampal cultures; [24]): 24338 | % of Control (CFDA) (rat hippocampal cultures; [25]): 79± 6% | CFDA signal, Mean (rat hippocampal cultures; [25]): 31811* | % of Control (CFDA) (rat hippocampal cultures; [26]): 93 ± 9% | CFDA signal, Mean (rat hippocampal cultures; [26]): 37544* | % of Control (CFDA) (rat hippocampal cultures; [27]): 98 ± 3% | CFDA signal, Mean (rat hippocampal cultures; [27]): 39516* | % of Control (CFDA) (rat hippocampal cultures; [28]): 60 ± 4% | CFDA signal, Mean (rat hippocampal cultures; [28]): 24819 | % of Control (CFDA) (rat hippocampal cultures; [29]): 66 ± 6% | CFDA signal, Mean (rat hippocampal cultures; [29]): 27524 | % of Control (CFDA) (rat hippocampal cultures; [30]): 85 ± 7% | CFDA signal, Mean (rat hippocampal cultures; [30]): 35341* | % of Control (CFDA) (rat hippocampal cultures; [31]): 96 ± 10% | CFDA signal, Mean (rat hippocampal cultures; [31]): 39844* | % of Control (CFDA) (rat hippocampal cultures; [32]): 88 ± 10% | CFDA signal, Mean (rat hippocampal cultures; [32]): 36632* | EC50 (rat hippocampal cultures; Rattus norvegicus, 5 h, CFDA, Captisol formulation, 10 μM hydrogen peroxide, 5 h, read-out: EC50 ± SE): 6.8 µM | EC50 (rat hippocampal cultures; Rattus norvegicus, CFDA, across formulations and batches, read-out: EC50 range): 3 to 10 µM | metabolite profile (dog hepatocytes; NS2, 120 min, dog hepatocytes): metabolized to M1, M2, M5, and M6, with some unchanged NS2 remaining; also recorded: two different mono-oxidation products (M1 and M2) and two different glutathione (GSH) conjugates (M5 and M6) | Peak Areas Dog (dog hepatocytes; dog, 120 min, 3 μM): 4.79E+07 | metabolite profile (monkey hepatocytes; NS2, 120 min, monkey hepatocytes): metabolized to M1, M3, M4, M7, M8, and a low amount of M9, with some unchanged NS2 remaining; also recorded: a mono-oxidation metabolite (M), four oxidation+glucuronidation metabolites (M3, M4, M7, and M9), and a glucuronidation metabolite (M) | Peak Areas Cyno Monkey (monkey hepatocytes; cynomolgus monkey, 120 min, 3 μM): 1.74E+08
